In patent publication US20050282755A1, “Compositions having antimicrobial activity and uses thereof” (priority 2004, published 2005):
≈ marks a conversion by molar mass, not a printed value. Non-standard residues stand in square brackets, D forms with d. Residues, ends and D or L forms follow the SMILES beside them. *: point of attachment. Lauroyl = CCCCCCCCCCCC(=O)*

Tests used:
[1] = system: Escherichia coli ATCC 25922; assay: MIC, NCCLS M7-A6 broth microdilution (Table 9, no superscript); assay type: cell-based; conditions: ATCC 25922
Procedure, shortened: (§1)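 Broth microdilution in cation-adjusted Mueller Hinton broth, log-phase inoculum giving 5×10^5 to 1×10^6 CFU/milliliter per well. Overnight incubation at 37° C. MIC taken as lowest peptide concentration with no visible turbidity versus a no-peptide control.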

[2] = system: Pseudomonas aeruginosa ATCC 27853; assay: as above; assay type: cell-based; conditions: ATCC 27853
Procedure, shortened: as §1

[3] = system: Staphylococcus epidermidis ATCC 12228; assay: as above; assay type: cell-based; conditions: ATCC 12228
Procedure, shortened: as §1

[4] = system: Propionibacterium acnes ATCC 6919; assay type: cell-based
Procedure: A second method that was used to determine the MIC in P. acnes for selected antimicrobial agents was a non-standard broth microdilution method that used an assay buffer composed of reinforced Clostridial broth. Briefly, a log-phase bacterial culture of P. acnes was used to inoculate wells of a 96-well plate so that the final inoculum for each well contained 5×10^5 to 1×10^6 CFU/milliliter. […] Plates were incubated for 48-72 hours at 37° C. in a GasPak anaerobic chamber. The lowest concentration of peptide that contained no visible growth as evidenced by a lack of turbidity when compared to the control (no peptide) was determined as the MIC. MIC values that utilized this method of MIC determination are indicated in Table 9 with a subscript letter “d.”

[5] = system: Staphylococcus aureus ATCC 29213; conditions: ATCC 29213, pH 7.4
Salmonella dublin (Lane) = conditions: pH 7.4
[6] = system: Candida albicans ATCC 18804; assay: MIC in yeasts, NCCLS M27-A2 broth microdilution, RPMI 1640 (Table 9, letter e); assay type: cell-based; conditions: ATCC 18804
Procedure, shortened: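 Broth microdilution per NCCLS M27-A2 in RPMI 1640 with glutamine and phenol red, final inoculum 0.5×10^3–2.5×10^3 CFU/milliliter. Incubated 24 to 48 hours at 37° C; MIC is the lowest peptide concentration with no visible growth.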

| Compound | MIC E. coli [1] [µg/mL] | MIC P. aeruginosa [2] [µg/mL] | MIC S. epidermidis [3] [µg/mL] | MIC P. acnes [4] [µg·days/mL] | MIC S. aureus [5] [b ug/mL] | MIC S. dublin (Salmonella dublin (Lane)) [b ug/mL] | MIC C. albicans [6] [e ug/mL] |
| --- | --- | --- | --- | --- | --- | --- | --- |
| CSCC[C@H](NC(=O)[C@H](Cc1ccccc1)NC(=O)[C@H](CC(N)=O)NC(=O)[C@H](CCCNC(=N)N)NC(=O)[C@H](CO)NC(=O)[C@H](Cc1c[nH]c2ccccc12)NC(=O)[C@H](CC(=O)O)NC(=O)[C@H](CCCNC(=N)N)NC(=O)[C@H](Cc1c[nH]c2ccccc12)NC(=O)[C@H](CCCNC(=N)N)NC(=O)[C@H](CO)NC(=O)[C@H](CCCNC(=N)N)NC(=O)CNC(=O)[C@@H](NC(=O)[C@H](CCCNC(=N)N)NC(=O)[C@H](CO)NC(=O)[C@@H](NC(=O)[C@H](CCCNC(=N)N)NC(=O)[C@@H](NC(C)=O)[C@@H](C)O)C(C)C)[C@@H](C)O)C(=O)N[C@@H](CCCNC(=N)N)C(=O)N[C@@H](C)C(=O)N[C@@H](C)C(=O)N[C@@H](CCCN)C(=O)N[C@@H](CCCN)C(=O)N[C@@H](CCCN)C(=O)N[C@@H](CCCN)C(=O)N[C@@H](CCCN)C(=O)N[C@@H](CCCN)C(=O)N[C@@H](CCCN)C(=O)N[C@@H](CCCN)C(N)=O [Peptide 3, Ac-TRVSRTGRSRWRDWSRNFMRAAOOOOOOOO-NH2] | >64 | >64 | >64 | 6 | 6 | 6 |  |
| CSCC[C@@H](NC(=O)[C@@H](Cc1ccccc1)NC(=O)[C@@H](CC(N)=O)NC(=O)[C@@H](CCCNC(=N)N)NC(=O)[C@@H](CO)NC(=O)[C@@H](Cc1c[nH]c2ccccc12)NC(=O)[C@@H](CC(=O)O)NC(=O)[C@@H](CCCNC(=N)N)NC(=O)[C@@H](Cc1c[nH]c2ccccc12)NC(=O)[C@@H](CCCNC(=N)N)NC(=O)[C@@H](CO)NC(=O)[C@@H](CCCNC(=N)N)NC(=O)CNC(=O)[C@H](NC(=O)[C@@H](CCCNC(=N)N)NC(=O)[C@@H](CO)NC(=O)[C@H](NC(=O)[C@@H](CCCNC(=N)N)NC(=O)[C@H](NC(C)=O)[C@H](C)O)C(C)C)[C@H](C)O)C(=O)N[C@H](CCCNC(=N)N)C(=O)N[C@H](C)C(=O)N[C@H](C)C(=O)N[C@H](CCCCN)C(=O)N[C@H](CCCCN)C(=O)N[C@H](CCCCN)C(=O)N[C@H](CCCCN)C(=O)N[C@H](CCCCN)C(=O)N[C@H](CCCCN)C(=O)N[C@H](CCCCN)C(=O)N[C@H](CCCCN)C(N)=O [Peptide 31, Ac-trvsrtgrsrwrdwsrnfmraakkkkkkkk-NH2] | >64 | >64 | 8 (≈ 2.09 µM) | 12.5 | 3 | 6 |  |
| CSCC[C@H](NC(=O)[C@H](Cc1ccccc1)NC(=O)[C@H](CC(N)=O)NC(=O)[C@H](CCCNC(=N)N)NC(=O)[C@H](C)NC(=O)[C@H](Cc1c[nH]c2ccccc12)NC(=O)[C@H](CC(=O)O)NC(=O)[C@H](CCCNC(=N)N)NC(=O)[C@H](Cc1c[nH]c2ccccc12)NC(=O)[C@H](CCCNC(=N)N)NC(=O)[C@H](CO)NC(=O)[C@H](CCCNC(=N)N)NC(=O)CNC(=O)[C@@H](NC(=O)[C@H](CCCNC(=N)N)NC(=O)[C@H](C)NC(=O)[C@@H](NC(=O)[C@H](CCCNC(=N)N)NC(=O)[C@@H](NC(C)=O)[C@@H](C)O)C(C)C)[C@@H](C)O)C(=O)N[C@@H](CCCNC(=N)N)C(N)=O [Peptide 37] (Ac-TRVARTGRSRWRDWARNFMR-NH2) | >64 | >64 | >64 | 100 | 25 | 25 | 64 |
| CSCC[C@@H](NC(=O)[C@@H](Cc1ccccc1)NC(=O)[C@@H](CC(N)=O)NC(=O)[C@@H](CCCNC(=N)N)NC(=O)[C@@H](CO)NC(=O)[C@@H](Cc1c[nH]c2ccccc12)NC(=O)[C@@H](CC(=O)O)NC(=O)[C@@H](CCCNC(=N)N)NC(=O)[C@@H](Cc1c[nH]c2ccccc12)NC(=O)[C@@H](CCCNC(=N)N)NC(=O)[C@@H](CO)NC(=O)[C@@H](CCCNC(=N)N)NC(C)=O)C(=O)N[C@H](CCCNC(=N)N)C(N)=O [Peptide 95, Ac-rsrwrdwsrnfmr-NH2] (Ac-[dR][dS][dR][dW][dR][dD][dW][dS][dR][dN][dF][dM][dR]-NH2) |  |  |  | 12.5 | 12.5 | 6 | 16 |

Continued, values first:

| MIC E. coli [1] [µg/mL] | MIC P. aeruginosa [2] [µg/mL] | MIC S. epidermidis [3] [µg/mL] | MIC P. acnes [4] [µg·days/mL] | MIC S. aureus [5] [b ug/mL] | MIC S. dublin (Salmonella dublin (Lane)) [b ug/mL] | MIC C. albicans [6] [e ug/mL] | Compound |
| --- | --- | --- | --- | --- | --- | --- | --- |
|  |  |  | 25 | 6 | 6 |  | CSCC[C@@H](NC(=O)[C@@H](Cc1ccccc1)NC(=O)[C@@H](CC(N)=O)NC(=O)[C@@H](CCCNC(=N)N)NC(=O)[C@@H](CO)NC(=O)[C@@H](Cc1c[nH]c2ccccc12)NC(=O)[C@@H](CC(=O)O)NC(=O)[C@@H](CCCNC(=N)N)NC(=O)[C@@H](Cc1c[nH]c2ccccc12)NC(=O)[C@@H](CCCNC(=N)N)NC(=O)[C@@H](CO)NC(=O)[C@@H](CCCNC(=N)N)NC(=O)CNC(=O)[C@H](NC(=O)[C@@H](CCCNC(=N)N)NC(=O)[C@@H](CO)NC(=O)[C@H](NC(=O)[C@@H](CCCNC(=N)N)NC(=O)[C@H](NC(=O)[C@@H](C)NC(=O)[C@@H](C)NC(=O)[C@@H](CCCCN)NC(=O)[C@@H](CCCCN)NC(=O)[C@@H](CCCCN)NC(=O)[C@@H](CCCCN)NC(=O)[C@@H](CCCCN)NC(=O)[C@@H](CCCCN)NC(=O)[C@@H](CCCCN)NC(=O)[C@H](N)CCCCN)[C@H](C)O)C(C)C)[C@H](C)O)C(=O)N[C@H](CCCNC(=N)N)C(N)=O [Peptide 36, H2N-kkkkkkkkaatrvsrtgrsrwrdwsrnfmr-NH2] (H-[dK][dK][dK][dK][dK][dK][dK][dK][dA][dA][dT][dR][dV][dS][dR][dT]G[dR][dS][dR][dW][dR][dD][dW][dS][dR][dN][dF][dM][dR]-NH2) |
|  |  |  | 25 | 3 | 6 |  | CCCCCCCCCCCC(=O)NCCCC[C@@H](NC(=O)[C@@H](CCCNC(=N)N)NC(=O)[C@@H](CCSC)NC(=O)[C@@H](Cc1ccccc1)NC(=O)[C@@H](CC(N)=O)NC(=O)[C@@H](CCCNC(=N)N)NC(=O)[C@@H](CO)NC(=O)[C@@H](Cc1c[nH]c2ccccc12)NC(=O)[C@@H](CC(=O)O)NC(=O)[C@@H](CCCNC(=N)N)NC(=O)[C@@H](Cc1c[nH]c2ccccc12)NC(=O)[C@@H](CCCNC(=N)N)NC(=O)[C@@H](CO)NC(=O)[C@@H](CCCNC(=N)N)NC(=O)CNC(=O)[C@H](NC(=O)[C@@H](CCCNC(=N)N)NC(=O)[C@@H](CO)NC(=O)[C@H](NC(=O)[C@@H](CCCNC(=N)N)NC(=O)[C@H](NC(C)=O)[C@H](C)O)C(C)C)[C@H](C)O)C(N)=O [Peptide 65] (Ac-[dT][dR][dV][dS][dR][dT]G[dR][dS][dR][dW][dR][dD][dW][dS][dR][dN][dF][dM][dR][dK](Lauroyl)-NH2) |
|  |  |  | 100 | 25 | 25 |  | CCCCCCCCCCCC(=O)NCCCC[C@H](NC(=O)[C@H](CCCNC(=N)N)NC(=O)[C@H](CCSC)NC(=O)[C@H](Cc1ccccc1)NC(=O)[C@H](CC(N)=O)NC(=O)[C@H](CCCNC(=N)N)NC(=O)[C@H](CO)NC(=O)[C@H](Cc1c[nH]c2ccccc12)NC(=O)[C@H](CC(=O)O)NC(=O)[C@H](CCCNC(=N)N)NC(=O)[C@H](Cc1c[nH]c2ccccc12)NC(=O)[C@H](CCCNC(=N)N)NC(=O)[C@H](CO)NC(=O)[C@H](CCCNC(=N)N)NC(=O)CNC(=O)[C@@H](NC(=O)[C@H](CCCNC(=N)N)NC(=O)[C@H](CO)NC(=O)[C@@H](NC(=O)[C@H](CCCNC(=N)N)NC(=O)[C@@H](NC(=O)CCCCCCCCCCC)[C@@H](C)O)C(C)C)[C@@H](C)O)C(N)=O [Peptide 66] (Lauroyl-TRVSRTGRSRWRDWSRNFMRK(Lauroyl)-NH2) |
|  |  |  | 25 | 3 | 3 | 32 | CCCCCCCCCCCC(=O)N[C@@H](CCCNC(=N)N)C(=O)N[C@@H](CO)C(=O)N[C@@H](CCCNC(=N)N)C(=O)N[C@@H](Cc1c[nH]c2ccccc12)C(=O)N[C@@H](CCCNC(=N)N)C(=O)N[C@@H](CC(=O)O)C(=O)N[C@H](C(=O)N[C@@H](C)C(=O)N[C@@H](CCCNC(=N)N)C(=O)N[C@@H](CC(N)=O)C(=O)N[C@@H](Cc1ccccc1)C(=O)N[C@@H](CCSC)C(=O)N[C@@H](CCCNC(=N)N)C(N)=O)C(C)C [Peptide 88, Lauryl-RSRWRDVARNFMR-NH2] (Lauroyl-RSRWRDVARNFMR-NH2) |
